Measurements published in US10399940B2, “Substituted pyrrolidines and methods of use” (AbbVie S.à.r.l., priority 2016, dated 2019).
Where two headings read alike, the source gives them in different places.

Target: T1, F508delCFTR (Homo sapiens, UniProt P13569, DEL508-508)
T1 construct: expressed in transfected cells; host or cells: CFBE41o- (human lung derived epithelial cell line), doxycycline-inducible expression
Test: Cell Surface Expression-Horse Radish Peroxidase (CSE-HRP) assay
Type: cell-based
Conditions: CFBE41o-F508delCFTR-HRP cells; for Maximum % activity (with co-corrector): with co-corrector (2 μM); for Maximum % activity (with co-corrector) / Maximum % activity (without co-corrector): normalized to on-plate positive control, highest concentration 20 μM
Method in brief: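 CFBE41o- cells expressed F508delCFTR with HRP in the fourth exofacial loop, induced by 0.5 μg/mL doxycycline for 72 h at 37 °C. Compounds alone or with 2 μM co-corrector ran 18–24 h at 33 °C, 8-point 3-fold from 20 μM. Washed-cell luminol luminescence was normalized to DMSO and positive control, fitted sigmoidally for EC50 (three plates).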

[1] = test compound without co-corrector, 18-24 hours at 33° C., read-out: EC50 (without co-corrector)
[2] = with co-corrector (2 μM of 3-[(2R,4R)-4-({[1-(2,2-difluoro-1,3-benzodioxol-5-yl)cyclopropyl]carbonyl}amino)-7-methoxy-3,4-dihydro-2H-chromen-2-yl]benzoic acid), read-out: EC50 (with co-corrector)

T1 sequence (P13569 with tags, fused parts or gaps DEL508-508): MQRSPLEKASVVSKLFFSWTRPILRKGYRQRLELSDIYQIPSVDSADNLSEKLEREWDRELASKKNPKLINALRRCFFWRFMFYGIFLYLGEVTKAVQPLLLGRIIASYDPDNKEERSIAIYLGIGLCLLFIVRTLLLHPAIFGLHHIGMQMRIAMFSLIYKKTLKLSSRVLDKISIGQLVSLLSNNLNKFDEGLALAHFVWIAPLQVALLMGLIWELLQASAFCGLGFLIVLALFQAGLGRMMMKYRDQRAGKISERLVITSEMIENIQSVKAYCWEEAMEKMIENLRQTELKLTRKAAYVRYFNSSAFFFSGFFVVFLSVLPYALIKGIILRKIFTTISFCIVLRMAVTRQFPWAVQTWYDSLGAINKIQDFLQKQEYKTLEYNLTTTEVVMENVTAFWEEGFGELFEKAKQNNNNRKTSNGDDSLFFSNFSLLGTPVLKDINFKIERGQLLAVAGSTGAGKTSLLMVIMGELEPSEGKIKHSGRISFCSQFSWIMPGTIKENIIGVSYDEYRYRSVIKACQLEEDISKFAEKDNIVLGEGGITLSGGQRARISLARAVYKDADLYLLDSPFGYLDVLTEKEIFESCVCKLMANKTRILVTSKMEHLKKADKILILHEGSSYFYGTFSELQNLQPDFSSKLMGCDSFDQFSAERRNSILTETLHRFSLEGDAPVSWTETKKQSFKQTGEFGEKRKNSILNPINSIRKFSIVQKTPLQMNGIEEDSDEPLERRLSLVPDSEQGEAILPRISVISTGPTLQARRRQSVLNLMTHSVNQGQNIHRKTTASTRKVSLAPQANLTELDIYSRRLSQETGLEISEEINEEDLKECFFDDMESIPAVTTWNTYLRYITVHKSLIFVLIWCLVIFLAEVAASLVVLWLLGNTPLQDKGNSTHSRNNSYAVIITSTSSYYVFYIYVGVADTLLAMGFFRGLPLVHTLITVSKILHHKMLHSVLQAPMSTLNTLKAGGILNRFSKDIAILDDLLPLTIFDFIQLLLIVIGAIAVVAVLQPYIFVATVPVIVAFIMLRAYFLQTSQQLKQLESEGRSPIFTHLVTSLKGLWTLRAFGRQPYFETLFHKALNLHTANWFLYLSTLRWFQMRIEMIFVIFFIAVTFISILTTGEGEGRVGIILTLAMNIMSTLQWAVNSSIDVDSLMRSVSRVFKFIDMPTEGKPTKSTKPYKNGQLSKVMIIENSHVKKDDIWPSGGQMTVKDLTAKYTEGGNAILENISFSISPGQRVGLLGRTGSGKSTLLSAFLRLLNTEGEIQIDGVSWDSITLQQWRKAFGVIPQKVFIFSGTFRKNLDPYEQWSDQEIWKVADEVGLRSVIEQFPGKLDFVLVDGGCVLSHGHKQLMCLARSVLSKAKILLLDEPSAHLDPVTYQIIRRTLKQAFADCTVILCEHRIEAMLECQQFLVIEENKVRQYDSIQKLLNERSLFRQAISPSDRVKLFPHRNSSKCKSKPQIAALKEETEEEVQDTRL

| Structure (SMILES) | EC50 [1] [µM] | EC50 [2] [µM] | Maximum % activity (with co-corrector) | Maximum % activity (without co-corrector) |
| --- | --- | --- | --- | --- |
| COc1ncc(C(F)(F)F)cc1CO[C@H]1[C@H](C(C)(C)C)[C@@H](C(=O)O)N(C(=O)[C@@H]2CCCO2)[C@H]1c1ccccc1C [Example 129, (2S,3R,4S,5S)-3-tert-butyl-4-{[2-methoxy-5-(trifluoromethyl)pyridin-3-yl]methoxy}-5-(2-methylphenyl)-1-[(2S)-oxolane-2-carbonyl]pyrrolidine-2-carboxylic acid] | 1 to 10 | < 1 | +++ (≥350) | ++ (≥100 and <200) |
| COc1nc2ccccc2cc1CO[C@H]1[C@H](C(C)(C)C)[C@@H](C(=O)O)N(C(=O)[C@@H]2CCCCO2)[C@H]1c1ccccc1C(C)C [Example 132, (2S,3R,4S,5S)-3-tert-butyl-4-[(2-methoxyquinolin-3-yl)methoxy]-1-[(2S)-oxane-2-carbonyl]-5-[2-(propan-2-yl)phenyl]pyrrolidine-2-carboxylic acid] | 1 to 10 | < 1 | +++ (≥350) | ++ (≥100 and <200) |
| COc1ncc(C2CCC2)cc1CO[C@H]1[C@H](C(C)(C)C)[C@@H](C(=O)O)N(C(=O)[C@@H]2CCCO2)[C@H]1c1cccnc1OC(C)C [Example 133, (2S,3R,4S,5S)-3-tert-butyl-4-[(5-cyclobutyl-2-methoxypyridin-3-yl)methoxy]-1-[(2S)-oxolane-2-carbonyl]-5-{2-[(propan-2-yl)oxy]pyridin-3-yl}pyrrolidine-2-carboxylic acid] | 1 to 10 | 1 to 10 | +++ (≥350) | ++ (≥100 and <200) |
| COc1ncc(C2CCC2)cc1CO[C@H]1[C@H](C(C)(C)C)[C@@H](C(=O)O)N(C(=O)C2CCOCC2)[C@H]1c1cccnc1OC(C)C [Example 134, (2S,3R,4S,5S)-3-tert-butyl-4-[(5-cyclobutyl-2-methoxypyridin-3-yl)methoxy]-1-(oxane-4-carbonyl)-5-{2-[(propan-2-yl)oxy]pyridin-3-yl}pyrrolidine-2-carboxylic acid] | 1 to 10 | 1 to 10 | ++ (≥150 and <350) | ++ (≥100 and <200) |
| COc1ncc(C2CCC2)cc1CO[C@H]1[C@H](C(C)(C)C)[C@@H](C(=O)O)N(C(=O)[C@H]2CCCCO2)[C@H]1c1cccnc1OC(C)C [Example 135, (2S,3R,4S,5S)-3-tert-butyl-4-[(5-cyclobutyl-2-methoxypyridin-3-yl)methoxy]-1-[(2R)-oxane-2-carbonyl]-5-{2-[(propan-2-yl)oxy]pyridin-3-yl}pyrrolidine-2-carboxylic acid] | 1 to 10 | < 1 | +++ (≥350) | ++ (≥100 and <200) |

Second part, the compound after the results:

| EC50 [1] [µM] | EC50 [2] [µM] | Maximum % activity (with co-corrector) | Maximum % activity (without co-corrector) | Structure (SMILES) |
| --- | --- | --- | --- | --- |
| < 1 | < 1 | +++ (≥350) | ++ (≥100 and <200) | COc1ncc(C2CCC2)cc1CO[C@H]1[C@H](C(C)(C)C)[C@@H](C(=O)O)N(C(=O)[C@@H]2CCCO2)[C@H]1c1ccccc1C(C)C [Example 130, (2S,3R,4S,5S)-3-tert-butyl-4-[(5-cyclobutyl-2-methoxypyridin-3-yl)methoxy]-1-[(2S)-oxolane-2-carbonyl]-5-[2-(propan-2-yl)phenyl]pyrrolidine-2-carboxylic acid] |
| < 1 | < 1 | ++ (≥150 and <350) | + (<100) | COc1nc2ccccc2cc1CO[C@H]1[C@H](C(C)(C)C)[C@@H](C(=O)O)N(C(=O)[C@H]2CCCCO2)[C@H]1c1ccccc1C(C)C [Example 131, (2S,3R,4S,5S)-3-tert-butyl-4-[(2-methoxyquinolin-3-yl)methoxy]-1-[(2R)-oxane-2-carbonyl]-5-[2-(propan-2-yl)phenyl]pyrrolidine-2-carboxylic acid] |
